Data published in PubChem BioAssay (NCI).
Several values for one entry are separate records, joined by “and”; a condition that tells them apart may be missing. Equal values may be shown once.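 Where inhibition never reached the appropriate level, the endpoint shown equals the highest concentration tested. Otherwise, values were interpolated linearly from a five-concentration, 48-hour dose response in 96-well plates. TGI is the concentration that stops growth completely.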 Where a SMILES comes first, the peptide text is derived from it. [ ]: non-standard residue; d: D form. The star is where a group is joined. ξ: configuration not given here. ξD = NC(CC(=O)O)C(=O)O; Ac3c = NC1(C(=O)O)CC1; Boc = CC(C)(C)OC(=O)*; OBn = c1ccc(CO*)cc1

What was measured:
Assay in all cases: NCI tumour cell line growth inhibition, 48 h
A549 NSCLC = system: A549 NSCLC
HCT-116 colon = system: HCT-116 colon
LOX IMVI melanoma = system: LOX IMVI melanoma
MALME-3M melanoma = system: MALME-3M melanoma
NCI-H23 lung = system: NCI-H23 lung
SK-OV-3 ovarian = system: SK-OV-3 ovarian
SW-620 colon = system: SW-620 colon
U251 CNS = system: U251 CNS
UACC-257 melanoma = system: UACC-257 melanoma
HCC-2998 colon = system: HCC-2998 colon

Row | Compound | TGI (A549 NSCLC) [µM] | TGI (HCT-116 colon) [µM] | TGI (LOX IMVI melanoma) | TGI (MALME-3M melanoma) [µM] | TGI (NCI-H23 lung) [µM] | TGI (SK-OV-3 ovarian) [µM] | TGI (SW-620 colon) [µM] | TGI (U251 CNS) [µM] | TGI (UACC-257 melanoma) [µM] | TGI (HCC-2998 colon) [µM]
1 | C[C@H](CC[C@@H](O)C(C)(C)O)[C@H]1CC[C@@]2(C)[C@@H]3CC=C4[C@@H](CC[C@H](O)C4(C)C)[C@]3(C)C(=O)C[C@]12C | > 50 | > 50 | > 50 µM | > 50 | > 50 | > 50 | > 50 | > 50 | > 50 | –
2 | O=c1[nH]c(=O)n(COCc2ccccc2)c2ccc(Br)cc12 | > 100 | > 100 | > 100 µM | – | – | > 100 | > 100 | > 100 | > 100 | –
3 | CC(=NCCN(CCN=C(C)c1c(O)cc(C)oc1=O)CCN=C(C)c1c(O)cc(C)oc1=O)c1c(O)cc(C)oc1=O | > 100 | > 100 | – | – | – | > 100 | > 100 | > 100 | > 100 | > 100
4 | O=c1c2ccccc2n2nnc3ccc(NCCCNCCNCCCNc4ccc5nnn6c7ccccc7c(=O)c4c56)c1c32 | 20.8 | > 38.5 | 24 µM | > 50 | 15.3 | > 41.2 | > 22.6 | – | > 50 | 6.51
5 | O=C(NCCCCNCCCNC(=O)c1ccccc1)c1ccccc1 | > 100 | > 100 | – | – | > 100 | > 100 | > 100 | > 100 | > 100 | > 100
6 | C=C(CC(=O)Nc1ccc(C(=O)OC)o1)C(=O)OC | 35.8 | 76.7 | > 100 µM | 39.3 | 72.7 | 86.3 | 53.5 | > 100 | 44.5 | –
7 | CC(=Nc1c2ccccc2nc2ccccc12)N(C)C | > 100 | 27.6 | 26.7 µM | > 100 | 41.1 | > 100 | – | 72 | 43.5 | –
8 | CCN(CC)C(=S)N/N=C/c1ccccn1 | 1.39 | – | 0.27 µM | > 100 | – | – | > 100 | > 100 | – | > 100
9 | CC(=O)NC1C(OCc2ccccc2)OC(CO)C(O)C1OCC(=O)NC(C)C(=O)NC(CCC(=O)NCCCCCNc1c2ccccc2nc2cccc([N+](=O)[O-])c12)C(N)=O (stereo not drawn) | 0.00142 | < 0.0001 | 0.0147 µM and 0.014 µM | < 0.0001 | – | – | 0.000315 | < 0.0001 | 0.00332 | < 0.0001
10 | Cc1nccn1S(=O)(=O)c1ccc(Br)cc1Br | > 100 | > 100 | > 100 µM | > 100 | > 100 | > 100 | > 100 | > 100 | > 100 | –
11 | NC(c1ccccc1)(C(F)(F)F)P1(=O)OC(=O)c2ccccc2O1 (stereo not drawn) | > 100 | > 100 | – | – | > 100 | 74.4 | > 100 | > 100 | > 100 | > 100
12 | COC(=O)C(Cc1c[nH]c2ccccc12)NC(=O)C(Cc1c[nH]c2ccccc12)NC(=O)C(Cc1c[nH]c2ccccc12)NC(=O)C(Cc1c[nH]c2ccccc12)NC(=O)OC(C)(C)C (stereo not drawn) (Boc-WWWW-OMe; configuration not given here) | > 100 | 44.2 | 28 µM | > 100 | 92.3 | – | 62.8 | 34.6 | > 100 | 38.5
13 | C1#Cc2ccccc2OCCOc2ccccc2C#Cc2ccccc2OCCOc2ccccc21 | > 100 | > 100 | 33.4 µM | 73 | 34.8 | – | > 100 | 28.1 | > 100 | –
14 | O=C(NC1(C(=O)NNc2nnc(-c3ccccc3)c(-c3ccccc3)n2)C(c2ccccc2)C(c2ccccc2)=NN1c1ccccc1)c1ccccc1 (stereo not drawn) | > 100 | > 100 | – | > 100 | > 100 | > 100 | > 100 | > 100 | > 100 | > 100
15 | COC(=O)C1(NC(=O)C(CC(=O)OCc2ccccc2)NC(=O)OC(C)(C)C)CC1 (stereo not drawn) (Boc-[ξD](OBn)-[Ac3c]-OMe) | > 100 | > 100 | > 100 µM | > 100 | > 100 | 77.4 | > 100 | > 100 | > 100 | –
16 | Cc1cc(Nc2ccc(N=Nc3ccc(O)c4ncccc34)cc2)nc(C)n1 | 38.3 | 44.6 | 43.8 µM | 44.6 | > 54.2 | > 72.7 | > 66.5 | 33.4 | 43.8 | –
17 | O=c1[nH]c(=O)n(COCc2ccccc2)c2ccc([N+](=O)[O-])cc12 | > 100 | > 100 | > 100 µM | – | – | > 100 | > 100 | > 100 | > 100 | > 100
18 | Nc1ccc(-c2nc3cc(F)ccc3s2)cc1I | > 100 | 53 | > 100 µM | 72.9 | 18.9 | 32.9 | > 100 | 26.8 | > 100 | –
19 | C=CCN(c1cc(OCc2ccccc2)c(NC(C)=O)cc1[N+](=O)[O-])S(C)(=O)=O | > 100 | > 100 | > 100 µM | 73.2 | 32.3 | 38.7 | > 100 | – | > 100 | > 100
20 | Cc1ccc(S(=O)(=O)NC(=O)NCCC(=O)O)cc1 | > 100 | > 100 | > 100 µM | > 100 | > 100 | > 100 | > 100 | > 100 | > 100 | –
21 | [N-]=[N+]=NC1CC(n2cc(COCC(F)(F)F)c(=O)[nH]c2=O)OC1CO (stereo not drawn) | > 100 | – | > 100 µM | > 100 | > 100 | > 100 | > 100 | > 100 | > 100 | > 100
22 | CC1(C)[C@@H](Cn2cnc3c(=O)[nH]c(N)nc32)CC[C@@]1(C)CO | > 100 | > 100 | > 100 µM | – | – | > 100 | > 100 | > 100 | > 100 | > 100
23 | CC(C)(C)OC(=O)NC(Cc1ccc(O)cn1)C(N)=O (stereo not drawn) | > 100 | > 100 | > 100 µM | > 100 | > 100 | – | > 100 | > 100 | > 100 | > 100
